Source: patent US20240059729A1, “MULTIFUNCTIONAL CYCLIC DINUCLEOTIDE AND USE THEREOF” (TYLIGAND BIOSCIENCE (SHANGHAI) LIMITED, priority 2020, published 2024)
pEC50, pIC50: −log10 of the molar value. Counter-ions that a name gives are not always drawn.

What was measured:
CT26 cells [1] = assay: Inhibition of proliferation of CT26 cells (CellTiter-Glo); type: cell-based, mouse; conditions: for pIC50: Mus musculus, 120 hours, CellTiter-Glo
Method: CT26 cell is a mouse colorectal cancer cell line. This assay used the CellTiter-Glo Luminescence Cell Vitality Assay kit from Promega to evaluate the inhibitory activity of the compounds on the proliferation of CT26 cells.
In thawing the CT26 cells (ATCC #CRL-2638), a cell freezing tube was quickly shaken in a water bath at 37° C. to thaw the cells within 1 min. The thawed cell suspension was taken and evenly mixed with DMEM medium (GE, Cat #SH30243.01) containing 10% FBS (GIBCO, Cat #10099-141), centrifuged for 5 min at 1000 rpm, and the supernatant was discarded. The cell pellet was resuspended in 5 mL of the complete medium (DMEM medium containing 10% FBS), placed into a cell culture flask with a bottom area of 25 cm^2, and incubated in a cell incubator at 37° C., 5% CO2 and 95% humidity. When the cell confluence reached 70%˜80%, the cells were passaged. All the cells in the culture flask were transferred to a 15 mL centrifuge tube, centrifuged for 5 min at 1000 rpm, and the supernatant was discarded. 5 mL of fresh complete medium was added to re-suspend the cell pellet, 1 mL of which was taken to place in a cell culture flask with a bottom area of 25 cm^2, supplemented with 4 mL of fresh complete medium for further incubation. When the cell confluence reached 70%-80% again, plating was conducted following the procedure of cell passage, retaining 1/5 cell suspension for further inculation and remaining 4/5 of the cell suspension in a 15 mL centrifuge tube.
The cell suspension was centrifuged to discard the old culture medium, washed once using DMEM medium (serum-free), and centrifuged to remove the supernatant. The cells were then re-suspended in DMEM medium (serum-free). Cell viability was then detected by Trypan blue exclusion test and to be used for plating when the cell viability was confirmed to be more than 95%. A cell suspension with a density of 1.1×10^4 viable cells/mL was prepared using DMEM medium (serum-free), and 90 μL of the cell suspension was added to a 96-well 96-well transparent flat-bottomed black-walled cell culture plate (Corning, Cat #3603) so that the cell density in the plate was 1000 viable cells/well. A control group containing no cells, no compound, and complete medium only (i.e., a culture medium control), and a control group containing no compound but cells (i.e., a cell control) were set. The cell plates were placed in a cell incubator overnight.
(§1) A 10 mM stock solution of the compounds in DMSO was first serially diluted at 3.16-fold with DMSO (Sigma, Cat #D2650) to the 9th concentration, and the 10th concentration was set as DMSO control (compound-free). Then, the DMSO solutions containing different concentrations of the compounds were diluted at 10-fold with PBS (Solarbio, Cat #P1020) so that the DMSO content in each compound solution of various concentrations was 10%. Finally, 10 μL of each of such solutions was added into corresponding cell culture plate to provide an initial compound concentration of 100 μM, with the dilution fold of adjacent concentrations being 3.16 and the DMSO content in the cell culture plate being 1%. The cell plate was placed in a cell incubator for further 120 hours.
After 120 hours, the CellTiter-Glo reagent (Promega, Cat #G7572) was thawed and the plates were equilibrated at room temperature for 30 min. 100 uL of CellTiter-Glo was added to each well of the plate, and the cells were lysed thoroughly by shaking on an orbital shaker for 5 min. The plates were placed at room temperature for 20 min to stabilize the luminescence signal, and the luminescence value of each well was scanned at full wavelength with a multifunctional microplate reader (Molecular Devices, Spectramax M3). […]

[2] = system: IFN-β secretion by THP-1 cells; assay: Activation of IFN-β secretion by THP-1 cells (Human IFN-beta ELISA); type: cell-based; conditions: for pEC50 / Activating effect on IFN-β secretion / STING agonist activity (in words): THP-1 cells; for pEC50: 24 hours, IFN-β ELISA; for Activating effect on IFN-β secretion / STING agonist activity (in words): EC50 compared with 2′,3′-cGAMP and ADU-S100
Method: THP-1 cell, a human monocytic leukemia cell line, has the STING phenotype of HAQ type, i.e., R71H-G230A-R293Q. This assay used the Human IFN-beta DuoSet ELISA Kit from R & D (R & D, Cat #DY814-05) and the DuoSet ELISA Ancillary Reagent Kit 2 (R & D, Cat #DY008) to evaluate the activation of IFN-β secretion from THP-1 cells by representative compounds of the invention.
In thawing the THP-1 cells (ATCC #TIB-202), a cell freezing tube was quickly shaken in a water bath at 37° C. to thaw the cells within 1 min. The thawed cell suspension was taken and evenly mixed with an RPMI1640 medium (Hyclone, product #SH30027.01) containing 10% FBS (Life Technology, Cat #10099-141), centrifuged for 5 min at 1000 rpm, and the supernatant was discarded. The cell pellet was resuspended in 5 mL of the complete medium (RPMI 1640 medium containing 10% FBS), placed into a cell culture flask with a bottom area of 25 cm^2, and incubated in a cell incubator at 37° C., 5% CO2 and 95% humidity. When the cell confluence reached about 80%, the cells were passaged. All the cells in the culture flask were transferred to a 15 mL centrifuge tube, centrifuged for 5 min at 1000 rpm, and the supernatant was discarded. 5 mL of fresh complete medium was added to re-suspend the cell pellet, 1 mL of which was taken to place in a cell culture flask with a bottom area of 25 cm^2, supplemented with 4 mL of fresh complete medium for further incubation. When the cell confluence reached about 80% again, plating was conducted following the procedure of cell passage, retaining 1/5 cell suspension for further inculation and remaining 4/5 of the cell suspension in a 15 mL centrifuge tube. The cell suspension was centrifuged to discard the old culture medium, washed once using RPMI1640 culture medium (serum-free), and centrifuged to remove the supernatant. The cells were then re-suspended in RPMI1640 culture medium (serum-free). Cell viability was then detected by Trypan blue exclusion test and to be used for plating when the cell viability was confirmed to be more than 95%. A cell suspension with a density of 1.1×10^6 viable cells/mL was prepared using RPMI1640 culture medium (serum-free), and 180 μL of the cell suspension was added to a 96-well cell culture plate (NUNC Company, Cat #167008) so that the cell density in the plate was 2×10^5 viable cells/well.
as §1, with “the 5th” for “the 9th”, “the 6th” for “the 10th”, “PBS” for “PBS (Solarbio, Cat #P1020)”, “Finally, 20” for “Finally, 10”, “further 24” for “further 120”
ELISA detection was conducted referring to the instructions from R & D System, Cat #DY814-05.
ELISA plate coating: PBS (R & D System Cat #DY006) was used to dilute the capture antibody (mouse anti-human IFN-β capture antibody PART #844508) to provide the working concentration, and 100 μL capture antibody working solution was added to a 96-well ELISA plate which was then sealed and incubated overnight at room temperature. Upon discarding the capture antibody working solution, the cell plate was washed 3 times with a washing buffer (0.05% Tween-20 in PBS, pH 7.2-7.4, R & D System Cat #WA126) at 400 μL of the washing buffer per well, and the washing buffer was thoroughly removed after each washing, with the final washing to be completely removed of the wash buffer by inverting and claping the plate to a clean piece of paper. […]

CT26 cells [3] = assay: Anti-tumor activity in bilateral transplantation tumor model of CT26 syngeneic mouse; type: in vivo, BALB/c mice; conditions: Day 13 post-dose; 50 μg/mouse intratumorally right side, Day 0 and Day 4
Method: BALB/c mice of 6-8 weeks (purchased from Shanghai Ling Chang Biotech Co., Ltd.) were inoculated with 5×10^5 CT26 cells (supplied by Taicang Zexin Biotechnology Co., Ltd., ATCC #CRL-2638) subcutaneously on the left and right back dorsal, respectively, and the inoculation volume was 0.1 mL/side. When tumors grew to an average volume of 100 mm^3, they were randomized according to tumor size and mouse body weight and dosing was initiated. The day of the first dose was Day 0.
Two doses were administered on Day 0 and Day 4, with 50 μg of compound/mouse (i.e., 2.5 mg/kg) injected intratumorally right side, with the same volume of PBS (Hyclone, Cat #SH30258.01) as a control. The tumor on the left side was not treated. The control mice were sacrificed 13 days and the treated mice were sacrificed 21 days, after dosing. During the experiment, tumor volumes on the left and right sides and the body weights were measured 3 times per week, and the tumor volume was calculated as V=D×d×d/2 (where D represents length of tumor and d represents width of tumor).

Nc1ccn([C@@H]2O[C@@H]3CO[P@@](=O)(S)OC4[C@@H](CO[P@@](=O)(S)OC3C2(F)F)O[C@@H](n2ccc(N)nc2=O)C4(F)F)c(=O)n1 (stereo partly drawn) [Example 3, (3′,3′)-cyclo-(Rp,Rp)-bis-[3′-O-phosphorothioate-diester-2′-deoxy-2′,2′-difluorocytidine]]
Inhibitory potency on in vitro growth of CT26 tumor cells (in words) (CT26 cells [1]): particularly significant inhibitory potency | pIC50 (CT26 cells [1]): > 6.00

Nc1nc(Cl)nc2c1ncn2[C@@H]1O[C@@H]2CO[P@@](=O)(S)OC3C(O)[C@@H](CO[P@@](=O)(S)OC2C1F)O[C@H]3n1cnc2c(N)ncnc21 (stereo partly drawn) [Example 5, (2′,3′)-cyclo-(Rp,Rp)-[2′-O-phosphorothioate-diester-adenosine]-[3′-O-phosphorothioate-diester-2-chloro-2′-deoxy-2′-fluoro-beta-adenosine] diammonium salt]
pEC50 ([2]; Homo sapiens, THP-1, 24 h): 4.00 to 5.00 | pIC50 (CT26 cells [1]): 5.00 to 6.00

Nc1ncnc2c1ncn2[C@@H]1O[C@@H]2CO[P@@](=O)(S)OC3C(F)[C@H](n4cnc5c(N)nc(Cl)nc54)O[C@@H]3CO[P@@](=O)(S)OC2C1O (stereo partly drawn) [Example 7, (3′,3′)-cyclo-(Rp,Rp)-[3′-O-phosphorothioate-diester-adenosine]-[3′-O-phosphorothioate-diester-2-chloro-2′-deoxy-2′-fluoro-beta-adenosine] diammonium salt]
pIC50 (CT26 cells [1]): 5.00 to 6.00

Nc1nc2c(ncn2[C@@H]2O[C@@H]3CO[P@@](=O)(S)OC4C[C@H](n5cnc6c(N)nc(Cl)nc65)O[C@@H]4CO[P@@](=O)(S)OC2C3O)c(=O)[nH]1 (stereo partly drawn) [Example 12, (2′,3′)-cyclo-(Rp,Rp)-[2′-O-phosphorothioate-diester-guanosine]-[3′-O-phosphorothioate-diester-2-chloro-2′-deoxy-adenosine] diammonium salt]
pEC50 ([2]; Homo sapiens, THP-1, 24 h): 5.00 to 6.00 | Activating effect on IFN-β secretion / STING agonist activity (in words) [2]: significant STING agonist activity | pIC50 (CT26 cells [1]): 5.00 to 6.00 | Growth inhibition rate, untreated left tumor (CT26 cells [3]): 75.3%

Nc1ccn([C@@H]2O[C@@H]3CO[P@@](=O)(S)O[C@H]4C(O)[C@@H](CO[P@@](=O)(S)O[C@@H]3C2(F)F)O[C@H]4n2cnc3c(=O)[nH]c(N)nc32)c(=O)n1 (stereo partly drawn) [Example 13, (2′,3′)-cyclo-(Rp,Rp)-[2′-O-phosphorothioate-diester-guanosine]-[3′-O-phosphorothioate-diester-2′-deoxy-2′,2′-difluorocytidine]diammonium salt]
pEC50 ([2]; Homo sapiens, THP-1, 24 h): 4.00 to 5.00 | pIC50 (CT26 cells [1]): > 6.00

Nc1nc2c(ncn2[C@@H]2O[C@@H]3CO[P@@](=O)(S)OC4C(F)[C@H](n5cnc6c(N)nc(Cl)nc65)O[C@@H]4CO[P@](=O)(S)OC3C2O)c(=O)[nH]1 (stereo partly drawn) [Example 16, (3′,3′)-cyclo-(Rp,Rp)-[3′-O-phosphorothioate-diester-guanosine]-[3′-O-phosphorothioate-diester-2-chloro-2′-deoxy-2′-fluoro-beta-adenosine] diammonium salt]
pEC50 ([2]; diammonium salt): 5.00 to 6.00 | Activating effect on IFN-β secretion / STING agonist activity (in words) [2]: significant STING agonist activity | Highest concentration of IFN-β secreted by stimulated THP-1 cells ([2]; compared with ADU-S100): higher than that of ADU-S100 | pIC50 (CT26 cells [1]): 5.00 to 6.00 | Growth inhibition rate, untreated left tumor (CT26 cells [3]): 71.7%

Nc1ccn([C@@H]2O[C@H](CO)[C@@H](O)C2(F)F)c(=O)n1 [Gemcitabine, gemcitabine, reference compound]
pIC50 (CT26 cells [1]): > 6.00

CCCC(CCC)C(=O)Nc1ccn([C@@H]2O[C@H](CO)[C@@H](O)C2(F)F)c(=O)n1 [LY2334737, N4-(2-propylpentanoyl)-2′-deoxy-2′,2′-difluorocytidine, reference compound]
pIC50 (CT26 cells [1]): 5.00 to 6.00
